Data published in patent US4731486A, “Hydroformylation using low volatile phosphine ligands” (Union Carbide Corporation, priority 1986, dated 1988).

What was measured:
[1] = Batch hydroformylation of butene-1 (Examples 14, 19); conditions: 100° C., 300 ppm Rh
Procedure: (§1) Each rhodium catalytic precursor solution so prepared was then employed to hydroformylate propylene in a magnetically stirred, 100 mL capacity, stainless steel autoclave which was attached to a gas manifold for introducing gases to the desired partial pressures. The autoclave was also equipped with a pressure calibrator for determining reaction pressure to ±0.01 psia. and a platinum resistance thermometer for determining reactor solution temperatures to ±0.10° C. The reactor was heated externally by two 300 watt heating bands. The reactor solution temperature was controlled by a platinum resistance sensor connected to an external proportional temperature controller for controlling the temperature of the external band heaters.
In each non-aqueous hydroformylation reaction, about 15 milliliters (about 14 grams) of the rhodium catalytic precursor solution so prepared was charged to the autoclave reactor under nitrogen and heated to the reaction temperature employed (as given in Table 1 below). The reactor was then vented down to 5 psig. and a premixed gas mixture of 1:1:1 carbon monoxide:hydrogen:propylene was introduced into the reactor via the gas manifold (partial pressures given in Table 1) and the propylene so hydroformylated.
The hydroformylation reaction rate in gram moles per liter per hour of C4 aldehydes produced was determined from sequential 5 psia. pressure drops in the reactor spanning the nominal operating pressure in the reactor, while the mole ratio of linear (n-butyraldehyde) to branched (2-methylpropionaldehyde) product was measured by gas chromatography and the results are given in Table 1 below.
The same procedure and conditions employed in Example 1 of preparing various rhodium catalytic precursor solutions using rhodium dicarbonyl acetylacetonate, about a 3:1 (wt.:wt. ratio) mixture of Texanol® and CARBOWAX® TPEG-990 (about 25 wt. %) as the solubilizing agent, and a monosulfonated triphenylphosphine sodium salt ligand having the formula [drawing 26] and hydroformylating an olefin was repeated employing the various rhodium complex catalyst precursor solutions and using different alpha olefins as the hydroformylation feedstocks and the reaction conditions as shown in Table 14 below.
A comparison of the catalytic activity of aqueous and non-aqueous solutions of monosulfonated triphenylphosphine sodium salt ligand promoted catalysts in hydroformylating various molecular weight alphe-olefins was determined as follows.
The same procedure and conditions employed in Example 1 of preparing rhodium catalytic precursor solutions, using rhodium dicarbonyl acetylacetonate, monosulfonated triphenylphosphine sodium salt having the formula as shown in Example 4 in either a non-aqueous organic solubilizing agent solution or water, as given in Table 19 below, and hydroformylating the various alpha-olefins was repeated employing the various rhodium complex precursor solutions and hydroformylation reaction conditions as shown in Table 19 below. Both the aqueous and non-aqueous hydroformylation reactions were conducted under identical conditions with regard to temperature, rhodium and ligand concentration, hydrogen and carbon monoxide partial pressure and olefin concentration.

[2] = Solubility of metal salt ligands in different aldehydes; format: physicochemical
[3] = HPLC analysis of ligand concentration in hydroformylation reaction mediums; format: physicochemical; conditions: both reactors, six days of operation
[4] = Solubility of TPPMS-Na in nonanal with various added solubilizing agents; format: physicochemical
Procedure: The solubility of a monosulfonated triphenylphosphine sodium salt ligand (TPPMS-Na) having the formula [drawing 28] was measured in C9 aldehyde (nonanal) in the presence of various added solubilizing agents and various mixtures of such agents for the ligand. […] The solubilizing agents and their mixtures were employed in a 1:2 weight:weight ratio with the nonanal.

[5] = Batch hydroformylation of propylene in stirred autoclave (Examples 1, 2, 11, 14, 19)
[6] = Batch hydroformylation of hexene-1 (Example 14); conditions: Texanol/TPEG-990 3:1; 100° C.; 300 ppm Rh; 8.7 wt. % ligand; 75 psia 4:1 H2:CO
Procedure: as §1
(§2) In each non-aqueous hydroformylation reaction, about 15 milliliters (about 14 grams) of the rhodium catalytic precursor solution so prepared was charged to the autoclave reactor under nitrogen and heated to the reaction temperature employed (as given in Table 1 below). […]
(§3) The hydroformylation reaction rate in gram moles per liter per hour of C4 aldehydes produced was determined from sequential 5 psia. pressure drops in the reactor spanning the nominal operating pressure in the reactor, while the mole ratio of linear (n-butyraldehyde) to branched (2-methylpropionaldehyde) product was measured by gas chromatography and the results are given in Table 1 below. […]

[7] = Batch hydroformylation of tetradecene-1 (Example 14); conditions: Texanol/TPEG-990 3:1; 100° C.; 300 ppm Rh; 8.7 wt. % ligand; 75 psia 4:1 H2:CO
Procedure: as §1, §2, §3

[8] = Continuous catalyst liquid recycle hydroformylation of octene-1 (Example 6)
Excerpt: In a continuous catalyst liquid recycle manner, an olefin starting material of octene-1 was hydroformylated for six days as follows.
The liquid recycle reactor system employed contained two 2.8 liter stainless steel stirred tank reactors, connected in series, each containing a vertically mounted agitator and a circular tubular sparger near the bottom of the reactor for feeding the syn gas. The sparger contained a plurality of holes of sufficient size to provide the desired gas flow into the liquid body. Reactor 1 contained a silicone oil shell as means of bringing the contents of the reactors up to reaction temperature while the reaction solution in Reactor 2 was heated by an electrical heater. Both reactors contained internal cooling coils for controlling the reaction temperature. Reactors 1 and 2 were connected via a line to transfer any unreacted gases from reactor 1 to reactor 2 and were further connected via a line so that a portion of the liquid reaction solution containing aldehyde product and catalyst from reactor 1 could be pumped into reactor 2 wherein the unreacted olefin of reactor 1 is further hydroformylated in reactor 2.
Each reactor also contained a pneumatic liquid level controller for automatic control of the liquid levels in the reactors. Reactor 1 further contained a line for introducing the liquid olefin using a metering pump, and a line for introducing syn gas through the sparger, while make up syn gas was added to reactor 2 via the same transfer line carrying the unreacted syn gas from reactor 1. Reactor 2 also contained a blow-off vent for removal of the unreacted gases. A line from the bottom of reactor 2 was connected to the top of a vaporizer so that a portion of the liquid reaction solution could be pumped from reactor 2 to the vaporizer. The vaporizer was maintained at reduced pressure with the help of a vacuum pump. Vaporized aldehyde was disengaged from the non-volatilized components of the liquid reaction solution in the gas-liquid separator part of the vaporizer. The remaining non-volatilized catalyst containing liquid reaction solution was pumped through a recycle line back into reactor 1. The recycle line also contained a pneumatic liquid level controller. The vaporized aldehyde product was passed into a water-cooled condenser, liquified and collected in a product receiver.

[9] = Texanol/TPEG-990 3:1, 8.7 wt. % ligand, 75 psia 4:1 H2:CO
[10] = aqueous (water as solvent), 90 psia 1:1 H2:CO
[11] = non-aqueous (Texanol/Carbowax TPEG990 2.6:1), 90 psia 1:1 H2:CO
[12] = TERGITOL 15-S-3/CARBOWAX PEG 600/Dimethyl Sulfoxide (4:1:1), 100° C., 200 ppm Rh, 90 psia 1:1:1 H2:CO:C3H6
[13] = TERGITOL 15-S-7/CARBOWAX TPEG 990/N-Methyl Pyrolidone (4:1:1), 100° C., 200 ppm Rh, 90 psia 1:1:1 H2:CO:C3H6
[14] = TERGITOL 15-S-7, 100° C., 200 ppm Rh, 90 psia 1:1:1 H2:CO:C3H6
[15] = TERGITOL 24-L-75N/NIAX PPG 1025 (4:1), 100° C., 200 ppm Rh, 90 psia 1:1:1 H2:CO:C3H6
[16] = TERGITOL NP-4/CARBOWAX TPEG 990 (4:1), 100° C., 200 ppm Rh, 90 psia 1:1:1 H2:CO:C3H6
[17] = TERGITOL NP-9, 100° C., 200 ppm Rh, 90 psia 1:1:1 H2:CO:C3H6
[18] = Texanol/TPEG-990 3:1, 90° C., 300 ppm Rh, 8.7 wt. % ligand, 90 psia 1:1:1 H2:CO:C3H6
[19] = aqueous (water as solvent), 100° C., 300 ppm Rh, 90 psia 1:1:1 H2:CO:Propylene
[20] = non-aqueous (Texanol/Carbowax TPEG990 2.6:1), 100° C., 300 ppm Rh, 90 psia 1:1:1 H2:CO:Propylene
[21] = day 1, reactors 80.1/85.8, CO 17.0/9.9 psia
[22] = day 2, reactors 80.0/85.6, CO 7.8/2.2 psia
[23] = day 3, reactors 80.1/85.7, CO 8.1/6.5 psia
[24] = day 6, reactors 80.0/85.0, CO 10.1/8.3 psia

O=S(=O)([O-])c1cccc(P(c2ccccc2)c2ccccc2)c1.[Na+]
Linear/Branched Aldehyde Mole Ratio [1, 9]: 12.8
Reaction Rate [1, 9]: 5.96 G moles/L/hr
Linear/Branched Aldehyde Mole Ratio [1, 10]: 37.1
Reaction Rate [1, 10]: 0.44 G Moles/L/Hr
Linear/Branched Aldehyde Mole Ratio [1, 11]: 5.1
Reaction Rate [1, 11]: 6.94 G Moles/L/Hr
Metal Salt Solubility ([2]; Butyraldehyde, 60 °C): 10.0 Wt. %
Metal Salt Solubility ([2]; Heptanal, 80 °C): 0.4 Wt. %
Metal Salt Solubility ([2]; Nonanal, 80 °C): 0.5 Wt. %
Metal Salt Solubility ([2]; Propionaldehyde, 35 °C): 16.3 Wt. %
Metal Salt Solubility ([2]; Tridecanal, 80 °C): 0.5 Wt. %
Metal Salt Solubility ([2]; Valeraldehyde, 80 °C): 5.3 Wt. %
change in ligand concentration of reaction mediums [3]: no significant change
TPPMS-Na Solubility ([4]; NIAX PPG-1025, 25 deg. C.): < 2 Weight Percent
TPPMS-Na Solubility ([4]; NIAX PPG-1025, 100 deg. C.): 2 Weight Percent
TPPMS-Na Solubility ([4]; TERGITOL 15-S-3/CARBOWAX PEG 600 (4:1), 25 deg. C.): 2 Weight Percent
TPPMS-Na Solubility ([4]; TERGITOL 15-S-3/CARBOWAX PEG 600 (4:1), 100 deg. C.): > 10 Weight Percent
TPPMS-Na Solubility ([4]; TERGITOL 15-S-3/CARBOWAX PEG 600/Methanol (4:1:1), 25 deg. C.): > 6 Weight Percent
TPPMS-Na Solubility ([4]; TERGITOL 15-S-3, 25 deg. C.): 2 Weight Percent
TPPMS-Na Solubility ([4]; TERGITOL 15-S-3, 100 deg. C.): 8 Weight Percent
TPPMS-Na Solubility ([4]; TERGITOL 15-S-7/CARBOWAX TPEG 990 (3:1), 25 deg. C.): 10 Weight Percent
TPPMS-Na Solubility ([4]; TERGITOL 15-S-7/CARBOWAX TPEG 990 (3:1), 100 deg. C.): 8 Weight Percent
TPPMS-Na Solubility ([4]; TERGITOL 15-S-7, 25 deg. C.): 4 Weight Percent
TPPMS-Na Solubility ([4]; TERGITOL 15-S-7, 100 deg. C.): 8 Weight Percent
TPPMS-Na Solubility ([4]; TERGITOL 24-L-15N, 25 deg. C.): 2 Weight Percent
TPPMS-Na Solubility ([4]; TERGITOL 24-L-15N, 100 deg. C.): 8 Weight Percent
TPPMS-Na Solubility ([4]; TERGITOL 24-L-50N/CARBOWAX PEG 600 (4:1), 25 deg. C.): > 10 Weight Percent
TPPMS-Na Solubility ([4]; TERGITOL 24-L-50N/CARBOWAX PEG 600 (4:1), 100 deg. C.): > 10 Weight Percent
TPPMS-Na Solubility ([4]; TERGITOL 24-L-50N, 25 deg. C.): 4 Weight Percent
TPPMS-Na Solubility ([4]; TERGITOL 24-L-50N, 100 deg. C.): 8 Weight Percent
TPPMS-Na Solubility ([4]; TERGITOL 24-L-75N/CARBOWAX TPEG 990 (4:1), 25 deg. C.): 12 Weight Percent
TPPMS-Na Solubility ([4]; TERGITOL 24-L-75N/CARBOWAX TPEG 990 (4:1), 100 deg. C.): 14 Weight Percent
TPPMS-Na Solubility ([4]; TERGITOL 24-L-75N/CARBOWAX TPEG 990/Methanol (4:1:1), 25 deg. C.): > 16 Weight Percent
TPPMS-Na Solubility ([4]; TERGITOL 24-L-75N/NIAX PPG 1025 (2:1), 25 deg. C.): > 10 Weight Percent
TPPMS-Na Solubility ([4]; TERGITOL 24-L-75N/NIAX PPG 1025 (2:1), 100 deg. C.): > 10 Weight Percent
TPPMS-Na Solubility ([4]; TERGITOL 24-L-75N, 25 deg. C.): 6 Weight Percent
TPPMS-Na Solubility ([4]; TERGITOL 24-L-75N, 100 deg. C.): 8 Weight Percent
TPPMS-Na Solubility ([4]; TERGITOL 25-L-5, 25 deg. C.): 4 Weight Percent
TPPMS-Na Solubility ([4]; TERGITOL 25-L-5, 100 deg. C.): 6 Weight Percent
TPPMS-Na Solubility ([4]; TERGITOL 26-L-5, 25 deg. C.): 2 Weight Percent
TPPMS-Na Solubility ([4]; TERGITOL 26-L-5, 100 deg. C.): 6 Weight Percent
TPPMS-Na Solubility ([4]; TERGITOL NP-4/CARBOWAX TPEG 990 (4:1), 25 deg. C.): 8 Weight Percent
TPPMS-Na Solubility ([4]; TERGITOL NP-4/CARBOWAX TPEG 990 (4:1), 100 deg. C.): 10 Weight Percent
TPPMS-Na Solubility ([4]; TERGITOL NP-4, 25 deg. C.): 2 Weight Percent
TPPMS-Na Solubility ([4]; TERGITOL NP-4, 100 deg. C.): 6 Weight Percent
TPPMS-Na Solubility ([4]; TERGITOL NP-9/CARBOWAX PEG 600 (3:1), 25 deg. C.): 10 Weight Percent
TPPMS-Na Solubility ([4]; TERGITOL NP-9/CARBOWAX PEG 600 (3:1), 100 deg. C.): > 10 Weight Percent
TPPMS-Na Solubility ([4]; TERGITOL NP-9/CARBOWAX PEG 600/Methanol (3:1:1), 25 deg. C.): > 12 Weight Percent
TPPMS-Na Solubility ([4]; TERGITOL NP-9, 25 deg. C.): 4 Weight Percent
TPPMS-Na Solubility ([4]; TERGITOL NP-9, 100 deg. C.): 6 Weight Percent
Linear/Branched Aldehyde Mole Ratio ([5]; 200 ppm Rh, about 120 mole equivalents ligand, 100° C., 60 psia 1:1:1 H2:CO:C3H6, Texanol/Carbowax PEG-600 10:1): 6.4
Reaction Rate (C4 aldehydes) ([5]; 200 ppm Rh, about 120 mole equivalents ligand, 100° C., 60 psia 1:1:1 H2:CO:C3H6, Texanol/Carbowax PEG-600 10:1, average of two runs): 0.28 Gmoles/L/Hr
Linear/Branched Aldehyde Mole Ratio [5, 12]: 5.6
Reaction Rate (C4 aldehydes) [5, 12]: 0.25 G moles/L/hr
Linear/Branched Aldehyde Mole Ratio [5, 13]: 5.0
Reaction Rate (C4 aldehydes) [5, 13]: 0.75 G moles/L/hr
Linear/Branched Aldehyde Mole Ratio [5, 14]: 4.7
Reaction Rate (C4 aldehydes) [5, 14]: 0.49 G moles/L/hr
Linear/Branched Aldehyde Mole Ratio [5, 15]: 5.3
Reaction Rate (C4 aldehydes) [5, 15]: 0.54 G moles/L/hr
Linear/Branched Aldehyde Mole Ratio [5, 16]: 6.0
Reaction Rate (C4 aldehydes) [5, 16]: 0.59 G moles/L/hr
Linear/Branched Aldehyde Mole Ratio [5, 17]: 5.1
Reaction Rate (C4 aldehydes) [5, 17]: 0.67 G moles/L/hr
Linear/Branched Aldehyde Mole Ratio [5, 18]: 5.0
Reaction Rate [5, 18]: 1.72 G moles/L/hr
Linear/Branched Aldehyde Mole Ratio [5, 19]: 19.3
Reaction Rate [5, 19]: 0.07 G Moles/L/Hr
Linear/Branched Aldehyde Mole Ratio [5, 20]: 4.8
Reaction Rate [5, 20]: 2.60 G Moles/L/Hr
Linear/Branched Aldehyde Mole Ratio [6]: 13.4
Reaction Rate [6]: 5.21 G moles/L/hr
Linear/Branched Aldehyde Mole Ratio [7]: 12.6
Reaction Rate [7]: 0.65 G moles/L/hr
C9 Aldehydes (rate) [8, 21]: 1.02 gmoles/L/hr
Linear/Branched Aldehyde Ratio [8, 21]: 14.0
C9 Aldehydes (rate) [8, 22]: 0.84 gmoles/L/hr
Linear/Branched Aldehyde Ratio [8, 22]: 27.2
C9 Aldehydes (rate) [8, 23]: 0.81 gmoles/L/hr
Linear/Branched Aldehyde Ratio [8, 23]: 24.7
C9 Aldehydes (rate) [8, 24]: 1.02 gmoles/L/hr
Linear/Branched Aldehyde Ratio [8, 24]: 22.5
